Results reported in patent US8680153B2, “Method for correcting a lipid imbalance in a subject” (The Royal Institution for the Advancement of …, priority 2005, dated 2014).
Entries after “also recorded” stand apart in the source; their conditions may differ.

How the values were obtained:
alveolar cells = experiment: Alveolar (inflammatory) cells in bronchoalveolar lavage fluid of infected mice; type: in vivo
Protocol: Mouse Lung Infection. Mice were anaesthetized with a combination of ketamine (7.5 mg/mL) and xylazine (0.5 mg/mL) administered intraperitoneally at a dose of 20 mL/kg of body weight. Once the mouse was successfully anaesthetized, the animal was installed under binoculars (Microscope M650, Wild Leitz, Willowdale, ON) in the vertical position and held on a restraining board by holding the animal by its upper incisor teeth (Guilbault, et al. (2005) supra). The tongue was then gently pulled to the side of the mouth and a 26-G gavage needle was inserted into the mouth and guided through the pharynx gently touching the vocal cords to see the lumen of the trachea; the needle was then introduced into the trachea to reach the lung for the bilateral injection of the 50 microliter inoculum. After inoculation, the animal regained righting reflex within an hour. A final dose of 1×10^6 P. aeruginosa was used for infection using wild-type and Cftr-KO mice. Mice were monitored 3 times daily; the maximum weight loss allowed was 15%. Mice were sacrificed by CO2 overdose.
Bronchoalveolar Lavage. Circulation was flushed by slow intracardiac infusion of divalent cation-free Hank's balanced salt solution (HBSS; INVITROGEN™, Mississauga, ON). The trachea was cannulated with a 22-gauge intravenous catheter placement unit (CRITIKON®, GE Medical Systems, Tampa, Fla.) connected to two 5 mL syringes via a 3-way stopcock with a rotating collar (Namic U.S.A., Glens Falls, N.Y.). The alveoli of infected mice were washed 3 times with 1.4 mL of divalent cation-free HBSS. The volume of bronchoalveolar lavage fluid recovered was approximately 1.2 mL. […] Cells were resuspended in 0.5 mL of Dulbecco's Modified Eagle Medium (DMEM; INVITROGEN™) supplemented with 10% fetal bovine serum (FBS; Hyclone, Logan, Utah), diluted in Turk's solution and counted using a hematocytometer. The proportions of macrophages, lymphocytes and PMN were calculated after counting approximately 300 alveolar cells on cytospin preparations stained with DIFF-QUICK® stain (American Scientific Products, McGaw Park, Ill.).

[1] = system: phospholipid-bound AA and DHA; experiment: Essential fatty acid profile in plasma, biweekly treatment for 4 weeks (8 treatments); type: in vivo, mice
Protocol: Fenretinide Diet Supplementation. Examples 2 to 6: fenretinide (Sigma-Aldrich, Oakville, ON) powder was resuspended in 95% ethanol and subsequently incorporated in the Peptamen liquid diet. It was protected from light and kept at 4° C. before being given to the mice (5 mg/kg per day per mouse). Mock-treated diets were prepared similarly by adding ethanol to the Peptamen diet but omitting the fenretinide supplementation. The diet was given every morning for 28 consecutive days with specific monitoring of the quantity consumed by the mice in each cage. Examples 7 to 12: fenretinide powder was kindly provided by Dr. Robert Smith (NIH; Bethesda, Md., USA). Fenretinide was resuspended in 95% ethanol to make a 2 μg/μL concentration. Approximately 40 μL of this preparation was incorporated into the Peptamen liquid diet (5 mg/kg per day per mouse). The prepared food containing fenretinide was then stored in the dark at 4° C. for no more than 3 hours prior to being administered to the mice. To ensure that the entire drug dose was consumed, the mice were given 10 mL of fenretinide-treated Peptamen, which represents ⅔ of the daily mouse food consumption, in the late afternoon. The remaining 5 mL of Peptamen (without fenretinide) was given the following morning. Mice were treated twice a week for 4 weeks. During the treatment period each mouse was kept in a separate cage (including WT mice) and was monitored to ensure that the entire amount of Peptamen containing the fenretinide or with out was consumed. The diet for the mock-treated control group was prepared and administered similarly to that described above, by adding the same volume of ethanol to the Peptamen diet but omitting the fenretinide supplementation.
Fatty Acid Analysis. Minced tissues isolated from mice were immersed in 1 mM BHA in chloroform and methanol (2:1 vol). For plasma samples (mouse and human), 100 μL of plasma was added to 1 mL of BHA. Lipids were then extracted from all samples according to standard methods (Folch, et al. (1957) J. Biol. Chem. 226:497-509). Identification of phospholipids was carried out by thin-layer chromatography extraction (Van Handel & Zilversmit (1957) J. Lab. Clin. Med. 50:152-157). Also, fractionated lipids were dried and resuspended in heptane:methanol:sulfuric acid (5:1:1) for free fatty acid extraction. Diazomethane was used to esterify the fatty acids released and the esters were identified by GC/MS (Hewlett Packard 5880A, WCOT capillary column (Supelco-10, 35 m×0.5 mm, 1 μm thick)) using commercial standards (Sigma-Aldrich).

[2] = system: DHA levels, DHA/AA ratio, ceramide levels, AA levels; experiment: Systemic lipid parameters in several organs, biweekly treatment for 4 weeks; type: in vivo, mice; conditions: four-week biweekly treatment
Protocol: Fenretinide Diet Supplementation. Examples 2 to 6: fenretinide (Sigma-Aldrich, Oakville, ON) powder was resuspended in 95% ethanol and subsequently incorporated in the Peptamen liquid diet. It was protected from light and kept at 4° C. before being given to the mice (5 mg/kg per day per mouse). Mock-treated diets were prepared similarly by adding ethanol to the Peptamen diet but omitting the fenretinide supplementation. The diet was given every morning for 28 consecutive days with specific monitoring of the quantity consumed by the mice in each cage. Examples 7 to 12: fenretinide powder was kindly provided by Dr. Robert Smith (NIH; Bethesda, Md., USA). Fenretinide was resuspended in 95% ethanol to make a 2 μg/μL concentration. Approximately 40 μL of this preparation was incorporated into the Peptamen liquid diet (5 mg/kg per day per mouse). […] During the treatment period each mouse was kept in a separate cage (including WT mice) and was monitored to ensure that the entire amount of Peptamen containing the fenretinide or with out was consumed. […]
Ceramide/Sphingolipids analysis. The concentration of ceramide in the (lung, liver, ileum, pancreas homogenates) and plasma from mice and humans were determined by ELISA^39;40 on separated lipids samples by thin layer chromatography, as described above. […]

CC1=C(/C=C/C(C)=C/C=C/C(C)=C/C(=O)Nc2ccc(O)cc2)C(C)(C)CCC1 [fenretinide, all-trans-N-(4-hydroxyphenyl) retinamide]
Mean total number of alveolar cells in the lungs (alveolar cells; Cftr-KO mice, day 3 post-infection (p=0.530 vs mock-treated)): 1.1×10^6±1.3×10^6 | Effect on cells recruited into the lungs of infected mice vs mock-treated (alveolar cells; day 3 post-infection, wild-type and Cftr-KO, neutrophils, monocytes, lymphocytes): no effect | Mean total number of alveolar cells in the lungs (alveolar cells; wild-type mice, day 3 post-infection (p=0.280 vs mock-treated)): 1.2×10^6±1.0×10^6 | Concentration of phospholipid-bound AA in plasma ([1]; Cftr-KO mice, 8 treatments, p<0.05): brought down significantly; also recorded: decreased significantly | Phospholipid-bound DHA, increase vs control Cftr-KO ([1]; Cftr-KO mice, plasma, 8 treatments): 2 fold | DHA:AA ratio, increase vs untreated Cftr-KO ([1]; Cftr-KO mice, plasma, 8 treatments, p<0.05): 2 fold | DHA bound in phospholipids, increase ([1]; WT and Cftr-KO mice, after 4 weeks of biweekly treatments (FIG. 14B legend)): 2 fold | Defect/imbalance in DHA levels, DHA/AA ratio and ceramide levels in all organs ([2]; Cftr-KO and HZ mice): effective at correcting, at least partially | AA levels in control organs (heart, kidney and spleen) ([2]; Cftr-KO mice): decreases the AA levels to normal
